Assay results taken from patent publication US20120165319A1, “INHIBITORS OF INTERLEUKIN-1 BETA CONVERTING ENZYME” (VERTEX PHARMACEUTICALS INCORPORATED, priority 1995, published 2012).
pIC50, pKi: −log10 of the molar value.

Legend:
[1] = In vivo rat clearance assay; conditions: plasma, iv
In short: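 Rats cannulated a day beforehand received 10–20 mg/kg by intravenous jugular dosing in propylene glycol/saline with 100 mM sodium bicarbonate. Carotid blood was sampled from 0 to 90 min, and plasma was extracted with acetonitrile/0.1% TFA for HPLC quantification. Clearance from non-linear regression pharmacokinetic analysis.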

ICE = molecular target: T1, ICE (Homo sapiens, UniProt P29466); assay: Enzyme assay with UV-visible substrate (visible ICE assay, Succinyl-Tyr-Val-Ala-Asp-pNitroanilide); format: biochemical
T1 sequence (P29466 120-297 limits assumed): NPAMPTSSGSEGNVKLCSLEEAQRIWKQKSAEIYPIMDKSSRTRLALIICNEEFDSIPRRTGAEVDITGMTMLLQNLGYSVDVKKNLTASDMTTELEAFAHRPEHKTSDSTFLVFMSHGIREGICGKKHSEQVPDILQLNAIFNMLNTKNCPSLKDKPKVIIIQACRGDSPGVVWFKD
T1 sequence (P29466 317-404 limits assumed): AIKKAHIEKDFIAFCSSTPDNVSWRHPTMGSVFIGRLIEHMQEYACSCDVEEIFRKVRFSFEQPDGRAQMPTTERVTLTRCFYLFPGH
In short: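 Human ICE was preincubated with inhibitor in DMSO and buffer for 15 min at room temperature, then succinyl-Tyr-Val-Ala-Asp-pNA was added. pNA release was followed at 405-603 nm for 20 min at 37° C. Ki and inhibition mode came from fitting rates to standard kinetic equations.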

[2] = system: IL-1β, human peripheral blood mononuclear cells (PBMC); assay: PBMC cell assay: IL-1β assay with human PBMC or enriched adherent mononuclear cells, LPS-stimulated; format: cell-based
In short: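 Buffy-coat human PBMC at 6×10^6 cells/ml, or adherent monocytes enriched by 1 h adherence (2.5−3.0×10^5 cells/well), are given 5–6 compound dilutions bracketing the ICE Ki (final DMSO 0.1%) plus LPS at a final 5 ng/ml. They are incubated 16–18 hr at 37 °C, 5% CO2, and supernatant mature IL-1β is measured by ELISA, with duplicate cultures and duplicate ELISAs.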

[3] = * = values obtained upon reassay
[4] = Homo sapiens, PBMC, * = values obtained upon reassay

clearance ([1]; Table 17) [mL/min/kg]	pKi (ICE; Table 17)	SMILES	clearance ([1]; 10-20 mg/kg) [mL/min/kg]	pKi (ICE; Table 5)	pIC50 [2, 3]	pIC50 [2, 4]	pIC50 ([2]; Homo sapiens, PBMC, Table 17)
–	–	O=C[C@H](CC(=O)O)NC(=O)[C@@H]1CCCN2C(=O)CC[C@H](NC(=O)c3ccc4c(c3)OCO4)C(=O)N12 [Compound 415, [3S(1S,9S)]3-[6,10-Dioxo-9-(3,4-methylenedioxybenzoylamino)-1,2,3,4,7,8,9,10-octahydro-6H-pyridazino[1,2-a][1,2]diazepine-1-carboxamido]-4-oxobutanoic acid]	18	8.60	6.00	6.00	–
–	–	O=C[C@H](CC(=O)O)NC(=O)[C@@H]1CCCN2C(=O)CC[C@H](NC(=O)c3ccc(Cl)cc3)C(=O)N12 [Compound 416]	47	7.92	–	5.92	–
–	–	COc1cc(C(=O)N[C@H]2CCC(=O)N3CCC[C@@H](C(=O)N[C@H](C=O)CC(=O)O)N3C2=O)cc(OC)c1OC [Compound 417, [3S(1S,9S)]3-[6,10-Dioxo-1,2,3,4,7,8,9,10-octahydro-9-(3,4,5-trimethoxybenzoylamino)-6H-pyridazino[1,2-a][1,2]diazepine-1-carboxamido]-4-oxobutanoic acid]	22	8.10	–	5.70	–
–	–	Cc1nc(C)c(C(=O)N[C@H]2CCC(=O)N3CCC[C@@H](C(=O)N[C@H](C=O)CC(=O)O)N3C2=O)s1 [Compound 423]	45	8.00	5.74	5.68	–
–	–	O=C[C@H](CC(=O)O)NC(=O)[C@@H]1CCCN2C(=O)CC[C@H](NC(=O)c3ccc4nc[nH]c4c3)C(=O)N12 [Compound 434]	20	8.31	5.92	5.80	–
–	–	O=C[C@H](CC(=O)O)NC(=O)[C@@H]1CCCN2C(=O)CC[C@H](NC(=O)c3cc4ccsc4s3)C(=O)N12 [Compound 442]	54	8.49	–	6.05	–
–	–	CC(=O)Nc1cccc(C(=O)N[C@H]2CCC(=O)N3CCC[C@@H](C(=O)N[C@H](C=O)CC(=O)O)N3C2=O)c1 [Compound 450, [3S(1S,9S)]3-{9-[(3-Acetamido)benzamido]-6,10-dioxo-1,2,3,4,7,8,9,10-octahydro-6H-pyridazino[1,2-a][1,2]diazepine-1-carboxamido}-4-oxobutanoic acid]	12	8.30	–	6.10	–
–	–	O=C[C@H](CC(=O)O)NC(=O)[C@@H]1CCCN2C(=O)CC[C@H](NC(=O)c3cccc(Cl)c3)C(=O)N12 [Compound 455]	54	8.92	–	6.40	–
–	–	CN(C)c1cccc(C(=O)N[C@H]2CCC(=O)N3CCC[C@@H](C(=O)N[C@H](C=O)CC(=O)O)N3C2=O)c1 [Compound 470]	63	8.30	–	6.30	–
–	–	CN(C)c1ccc(C(=O)N[C@H]2CCC(=O)N3CCC[C@@H](C(=O)N[C@H](C=O)CC(=O)O)N3C2=O)cc1 [Compound 471]	17	9.00	–	6.12	–
–	–	O=C[C@H](CC(=O)O)NC(=O)[C@@H]1CCCN2C(=O)CC[C@H](NC(=O)c3cc4ccccc4[nH]3)C(=O)N12 [Compound 475, [3S(1S,9S)]3-[6,10-Dioxo-9-(indol-2-oylamino)-1,2,3,4,7,8,9,10-octahydro-6H-pyridazino[1,2-a][1,2]diazepine-1-carboxamido]-4-oxobutanoic acid]	21	8.26	6.19	6.16	–
–	–	CC(C)C(=O)Nc1ccc(C(=O)N[C@H]2CCC(=O)N3CCC[C@@H](C(=O)N[C@H](C=O)CC(=O)O)N3C2=O)cc1 [Compound 484]	15	8.70	5.85	5.81	–
–	–	O=C[C@H](CC(=O)O)NC(=O)[C@@H]1CCCN2C(=O)CC[C@H](NC(=O)c3ccc(NC(=O)Cc4ccccc4)cc3)C(=O)N12 [Compound 486, [3S(1S,9S)]3-{6,10-Dioxo-1,2,3,4,7,8,9,10-octahydro-9-[4-(phenylacetamido)benzamido]-6H-pyridazino[1,2-a][1,2]diazepine-1-carboxamido}-4-oxobutanoic acid]	37	8.64	6.24	6.32	–
–	–	CC(C)CC(=O)Nc1ccc(C(=O)N[C@H]2CCC(=O)N3CCC[C@@H](C(=O)N[C@H](C=O)CC(=O)O)N3C2=O)cc1 [Compound 487, [3S(1S,9S)]3-{6,10-Dioxo-9-[4-(3-methylbutan-1-oylamino)benzamido]-1,2,3,4,7,8,9,10-octahydro-6H-pyridazino[1,2-a][1,2]diazepine-1-carboxamido}-4-oxobutanoic acid]	20	8.62	6.02	6.19	–
40	6.14	COC(=O)N[C@H]1CCC(=O)N2CCC[C@@H](C(=O)N[C@@H](CC(=O)O)C(=O)CSc3ncccn3)N2C1=O [Compound 511c, [3S(1S,9S)]3-[6,10-Dioxo-9-(methoxycarbonyl)-amino-1,2,3,4,7,8,9,10-octahydro-6H-pyridazino[1,2-a][1,2]diazepine-1-carboxamido]-5-(2-mercaptopyrimidine)-4-oxopentanoic acid]	–	–	–	–	< 4.70
–	–	COCC(=O)N1C[C@H](NC(=O)c2ccccc2)C(=O)N(CC(=O)N[C@H](C=O)CC(=O)O)c2ccccc21 [Compound 605e, (3S)-3-[(3S)-2-Oxo-3-benzoylamino-5-methoxyacetyl-2,3,4,5-tetrahydro-1H-1,5-benzodiazepin-1-acetylamino]-4-oxo-butyric acid]	24	7.54	–	5.65	–
33.2	8.30	CC(=O)N1C[C@H](NC(=O)c2cc(C)c(O)c(C)c2)C(=O)N(CC(=O)N[C@H](C=O)CC(=O)O)c2ccccc21 [Compound 671, (3S)-3-[(3S)-2-Oxo-3-(3,5-dimethyl-4-hydroxybenzoyl)amino-5-acetyl-2,3,4,5-tetrahydro-1H-1,5-benzodiazepine-1-acetylamino]-4-oxo-butyric acid]	–	–	–	–	5.70
9.9	8.68	Cc1cc(C(=O)N[C@H]2CN(C(=O)CO)c3ccccc3N(CC(=O)N[C@H](C=O)CC(=O)O)C2=O)cc(C)c1O [Compound 691a, (3S)-3-[(3S)-2-Oxo-3-(3,5-dimethyl-4-hydroxybenzoyl)amino-5-hydroxyacetyl-2,3,4,5-tetrahydro-1H-1,5-benzodiazepine-1-acetylamino]-4-oxo-butyric acid]	–	–	–	–	5.54
13	8.35	O=C[C@H](CC(=O)O)NC(=O)CN1C(=O)[C@@H](NC(=O)c2nccc3ccccc23)CN(C(=O)CO)c2ccccc21 [Compound 696, (3S)-3-[(3S)-2-Oxo-3-(isoquinolin-1-oyl)amino-5-hydroxyacetyl-2,3,4,5-tetrahydro-1H-1,5-benzodiazepine-1-acetylamino]-4-oxo-butyric acid]	–	–	–	–	5.70
–	–	O=C[C@H](CC(=O)O)NC(=O)[C@@H]1CCCN2C(=O)CCN(NC(=O)c3ccc4c(c3)OCO4)C(=O)N12 [Compound 1015, [3S(4S)]3-[6,10-Dioxo-7-(3,4-methylenedioxybenzoylamino)-1,2,3,4,7,8,9,10-octahydro-6H-pyridazino[1,2-a][1,2,4]triazepine-4-carboxamido]-4-oxobutanoic acid]	23	7.40	–	5.60	–
9.1	6.77	CC(=O)Nc1ccc(C(=O)NN2CCC(=O)N3CCC[C@@H](C(=O)N[C@H](C=O)CC(=O)O)N3C2=O)cc1 [Compound 1018, [3S(4S)]3-{7-[(4-Acetamido)benzamido]-6,10-Dioxo-1,2,3,4,7,8,9,10-octahydro-6H-pyridazino[1,2-a][1,2,4]-triazepine-4-carboxamido}-4-oxobutanoic acid]	–	–	–	–	5.40

SMILES	clearance ([1]; Table 17) [mL/min/kg]	pKi (ICE; Table 17)	clearance ([1]; 10-20 mg/kg) [mL/min/kg]	pKi (ICE; Table 5)	pIC50 [2, 3]	pIC50 [2, 4]	pIC50 ([2]; Homo sapiens, PBMC, Table 17)
CC(=O)N1C[C@H](NC(=O)c2cc(Cl)c(O)c(Cl)c2)C(=O)N(CC(=O)N[C@H](C=O)CC(=O)O)c2ccccc21 [Compound 656, (3S)-3-[(3S)-2-Oxo-3-(3,5-dichloro, 4-hydroxybenzoyl)amino-5-acetyl-2,3,4,5-tetrahydro-1H-1,5-benzodiazepine-1-acetylamino-]4-oxo-butyric acid]	2.9	9.22	–	–	–	–	5.68
O=C[C@H](CC(=O)O)NC(=O)CN1C(=O)[C@@H](NC(=O)c2cc(Cl)c(O)c(Cl)c2)CN(C(=O)CO)c2ccccc21 [Compound 662, (3S)-3-[(3S)-2-Oxo-3-(3,5-dichloro-4-hydroxybenzoyl)amino-5-(2-hydroxy)acetyl-2,3,4,5-tetrahydro-1H-1,5-benzodiazepine-1-acetylamino]-4-oxo-butyric acid]	2.75	9.30	–	–	–	–	5.74
O=C[C@H](CC(=O)O)NC(=O)CN1C(=O)[C@@H](NC(=O)c2ccccc2)CN(C(=O)CO)c2ccccc21 [Compound 668, (3S)-3-[(3S)-2-Oxo-3-benzoylamino-5-(2-hydroxy)acetyl-2,3,4,5-tetrahydro-1H-1,5-benzodiazepine-1-acetylamino]-4-oxo-butyric acid]	29	8.05	–	–	–	–	5.28
